Source: the NIST ThermoML archive (doi:10.1016/j.jct.2006.12.012)
± gives the expanded uncertainty stated by the source.

Columns and labels:
[1] = 101 kPa, Liquid
[2] = xn = mol fraction of the nth substance listed; details: 101 kPa, Liquid, x2 = 0

| mass density ([1]; 298.15 K) [kg/m3] | viscosity ([1]; 298.15 K) [mPa·s] | mass density ([1]; 303.15 K) [kg/m3] | viscosity ([1]; 303.15 K) [mPa·s] | mass density ([1]; 308.15 K) [kg/m3] | viscosity ([1]; 308.15 K) [mPa·s] | mass density ([1]; 313.15 K) [kg/m3] | viscosity ([1]; 313.15 K) [mPa·s] | mass density ([1]; 318.15 K) [kg/m3] | viscosity ([1]; 318.15 K) [mPa·s] | viscosity ([2]; 298.15 K) [mPa·s] | viscosity ([2]; 303.15 K) [mPa·s] | viscosity ([2]; 308.15 K) [mPa·s] | viscosity ([2]; 313.15 K) [mPa·s] | viscosity ([2]; 318.15 K) [mPa·s] | SMILES |
| --- | --- | --- | --- | --- | --- | --- | --- | --- | --- | --- | --- | --- | --- | --- | --- |
| 1096.29 ± 0.28 | 1.996 ± 0.024 | 1091.44 ± 0.28 | 1.836 ± 0.022 | 1086.41 ± 0.27 | 1.669 ± 0.02 | 1081.59 ± 0.26 | 1.535 ± 0.019 | 1076.46 ± 0.25 | 1.393 ± 0.017 | – | – | – | – | – | C[S+](C)[O-] [dimethyl sulfoxide] |
| – | – | – | – | – | – | – | – | – | – | 0.8901 ± 0.012 | 0.7973 ± 0.011 | 0.7193 ± 0.0098 | 0.653 ± 0.009 | 0.5961 ± 0.0083 | O [water] + C[S+](C)[O-] |
